In general, MIC refers to the least concentration at which growth counts as inhibited. Higher therefore signals weaker potency.

In brackets after ≈: the same amount, converted by molar mass.

Holding throughout (assay): MIC, standard broth micro-dilution assay
What all share (format): cell-based

Assay [1] relates to Entercoccus faecalis 276. Here is the method: (§1) The formula I compounds have in vitro and in vivo activity against Gram-positive pathogenic bacteria. The MIC's were determined using a standard broth micro-dilution assay.
Assay [2] concerns Entercoccus faecalis 2041. As for the experimental part: as §1
Assay [3] has as its system Entercoccus gallinarum 245. As for the experimental part: as §1

For `CNC(CC(C)C)C(=O)NC1C(=O)NC(CC(N)=O)C(=O)NC2C(=O)NC3C(=O)NC(C(=O)NC(C(=O)O)c4cc(O)cc(O)c4-c4cc3ccc4O)C(OC3CC(C)(N)C(O)C(C)O3)c3ccc(c(Cl)c3)Oc3cc2cc(c3OC2OC(CO)C(O)C(O)C2OC2CC(C)(NCc3ccc(OCCCC#N)cc3)C(O)C(C)O2)Oc2ccc(cc2Cl)C1O` (stereo not drawn) [Compound 55, 4-[3-cyanopropoxy]benzyl], in assay [1], the MIC worked out at 0.5 µg/mL (≈ 0.283 µM).

For the compound `CNC(CC(C)C)C(=O)NC1C(=O)NC(CC(N)=O)C(=O)NC2C(=O)NC3C(=O)NC(C(=O)NC(C(=O)O)c4cc(O)cc(O)c4-c4cc3ccc4O)C(OC3CC(C)(N)C(O)C(C)O3)c3ccc(c(Cl)c3)Oc3cc2cc(c3OC2OC(CO)C(O)C(O)C2OC2CC(C)(NCc3ccc(-c4ccc(C)c(C)c4)cc3)C(O)C(C)O2)Oc2ccc(cc2Cl)C1O` (stereo not drawn) [Compound 221, 4-[3,4-dimethylphenyl]benzyl], the MIC is at most 0.06 µg/mL in assay [2] and 2 µg/mL (≈ 1.12 µM) in assay [3].

On to `CN[C@H](CC(C)C)C(=O)N[C@H]1C(=O)N[C@@H](CC(N)=O)C(=O)N[C@H]2C(=O)N[C@H]3C(=O)N[C@H](C(=O)N[C@H](C(=O)O)c4cc(O)cc(O)c4-c4cc3ccc4O)[C@H](O[C@H]3C[C@](C)(N)[C@@H](O)[C@H](C)O3)c3ccc(c(Cl)c3)Oc3cc2cc(c3O[C@@H]2O[C@H](CO)[C@@H](O)[C@H](O)[C@H]2O[C@H]2C[C@](C)(NCc3ccc(Oc4ccc(C)cc4)cc3)[C@@H](O)[C@H](C)O2)Oc2ccc(cc2Cl)[C@H]1O` [Compound 95, 4-[4-methylphenoxy]benzyl], for which the MIC in assay [2] was at most 0.06 µg/mL; in assay [3], 1 µg/mL (≈ 0.559 µM).

As for `CNC(CC(C)C)C(=O)NC1C(=O)NC(CC(N)=O)C(=O)NC2C(=O)NC3C(=O)NC(C(=O)NC(C(=O)O)c4cc(O)cc(O)c4-c4cc3ccc4O)C(OC3CC(C)(N)C(O)C(C)O3)c3ccc(c(Cl)c3)Oc3cc2cc(c3OC2OC(CO)C(O)C(O)C2OC2CC(C)(NCC3CCCCC3)C(O)C(C)O2)Oc2ccc(cc2Cl)C1O` (stereo not drawn) [Compound 161, cyclohexylmethyl], the MIC in assay [2] is at most 0.06 µg/mL; in assay [3] it was 8 µg/mL (≈ 4.74 µM).

Take `CNC(CC(C)C)C(=O)NC1C(=O)NC(CC(N)=O)C(=O)NC2C(=O)NC3C(=O)NC(C(=O)NC(C(=O)O)c4cc(O)cc(O)c4-c4cc3ccc4O)C(OC3CC(C)(N)C(O)C(C)O3)c3ccc(c(Cl)c3)Oc3cc2cc(c3OC2OC(CO)C(O)C(O)C2OC2CC(C)(NCc3ccncc3)C(O)C(C)O2)Oc2ccc(cc2Cl)C1O` (stereo not drawn) [Compound 26, 4-pyridylmethyl]: in assay [1], the MIC is at most 0.06 µg/mL.

For the compound `CNC(CC(C)C)C(=O)NC1C(=O)NC(CC(N)=O)C(=O)NC2C(=O)NC3C(=O)NC(C(=O)NC(C(=O)O)c4cc(O)cc(O)c4-c4cc3ccc4O)C(OC3CC(C)(N)C(O)C(C)O3)c3ccc(cc3)Oc3cc2cc(c3OC2OC(CO)C(O)C(O)C2OC2CC(C)(NCc3ccc(-c4ccccc4)cc3)C(O)C(C)O2)Oc2ccc(cc2)C1O` (stereo not drawn) [Compound 183, 4-phenylbenzyl], the MIC in assay [2] was at most 0.06 µg/mL; in assay [3], 0.5 µg/mL (≈ 0.296 µM).

In the case of `CNC(CC(C)C)C(=O)NC1C(=O)NC(CC(N)=O)C(=O)NC2C(=O)NC3C(=O)NC(C(=O)NC(C(=O)O)c4cc(O)cc(O)c4-c4cc3ccc4O)C(OC3CC(C)(N)C(O)C(C)O3)c3ccc(c(Cl)c3)Oc3cc2cc(c3OC2OC(CO)C(O)C(O)C2OC2CC(C)(NCCCCC#Cc3ccccc3)C(O)C(C)O2)Oc2ccc(cc2Cl)C1O` (stereo not drawn) [Compound 235, 6-phenyl-5-hexynyl], the MIC in assay [2] is at most 0.06 µg/mL; in assay [3], 1 µg/mL (≈ 0.572 µM).

`CC#CCCCCCCCCCCOc1ccc(CNC2(C)CC(OC3C(Oc4c5cc6cc4Oc4ccc(cc4Cl)C(OC4CC(C)(N)C(O)C(C)O4)C4NC(=O)C(NC(=O)C6NC(=O)C(CC(N)=O)NC(=O)C(NC(=O)C(CC(C)C)NC)C(O)c6ccc(c(Cl)c6)O5)c5ccc(O)c(c5)-c5c(O)cc(O)cc5C(C(=O)O)NC4=O)OC(CO)C(O)C3O)OC(C)C2O)cc1` (stereo not drawn) [Compound 233, 4-[11-tridecynyloxy]benzyl] came in with an MIC in assay [1] of 8 µg/mL (≈ 4.26 µM).

As for `CNC(CC(C)C)C(=O)NC1C(=O)NC(CC(N)=O)C(=O)NC2C(=O)NC3C(=O)NC(C(=O)NC(C(=O)O)c4cc(O)cc(O)c4-c4cc3ccc4O)C(OC3CC(C)(N)C(O)C(C)O3)c3ccc(c(Cl)c3)Oc3cc2cc(c3OC2OC(CO)C(O)C(O)C2OC2CC(C)(NCC3=CCC(C(C)C)CC3)C(O)C(C)O2)Oc2ccc(cc2Cl)C1O` (stereo not drawn) [Compound 171, 1-cyclohexenyl-4-isopropylmethyl], the values for the MIC in assay [2] and in assay [3] were at most 0.06 µg/mL and 8 µg/mL (≈ 4.63 µM), respectively.

For the compound `CN[C@H](CC(C)C)C(=O)N[C@H]1C(=O)N[C@@H](CC(N)=O)C(=O)N[C@H]2C(=O)N[C@H]3C(=O)N[C@H](C(=O)N[C@H](C(=O)O)c4cc(O)cc(O)c4-c4cc3ccc4O)[C@H](O[C@H]3C[C@](C)(N)[C@@H](O)[C@H](C)O3)c3ccc(c(Cl)c3)Oc3cc2cc(c3O[C@@H]2O[C@H](CO)[C@@H](O)[C@H](O)[C@H]2O[C@H]2C[C@](C)(NCc3ccc(OCc4ccc(Cl)cc4)cc3)[C@@H](O)[C@H](C)O2)Oc2ccc(cc2Cl)[C@H]1O` [Compound 93, 4-[4-chlorobenzyloxy]benzyl], the MIC was at most 0.06 µg/mL in assay [2] and 1 µg/mL (≈ 0.549 µM) in assay [3].

For `CNC(CC(C)C)C(=O)NC1C(=O)NC(CC(N)=O)C(=O)NC2C(=O)NC3C(=O)NC(C(=O)NC(C(=O)O)c4cc(O)cc(O)c4-c4cc3ccc4O)C(OC3CC(C)(N)C(O)C(C)O3)c3ccc(c(Cl)c3)Oc3cc2cc(c3OC2OC(CO)C(O)C(O)C2OC2CC(C)(NCc3ccc(OCc4ccc([N+](=O)[O-])cc4)cc3)C(O)C(C)O2)Oc2ccc(cc2Cl)C1O` (stereo not drawn) [Compound 131, 4-[4-nitrobenzyloxy]benzyl], the MIC in assay [2] is at most 0.06 µg/mL; in assay [3], 2 µg/mL (≈ 1.09 µM).

Take `C=CCCCOc1ccc(CNC2(C)CC(OC3C(Oc4c5cc6cc4Oc4ccc(cc4Cl)C(OC4CC(C)(N)C(O)C(C)O4)C4NC(=O)C(NC(=O)C6NC(=O)C(CC(N)=O)NC(=O)C(NC(=O)C(CC(C)C)NC)C(O)c6ccc(c(Cl)c6)O5)c5ccc(O)c(c5)-c5c(O)cc(O)cc5C(C(=O)O)NC4=O)OC(CO)C(O)C3O)OC(C)C2O)cc1` (stereo not drawn) [Compound 226, 4-[4-pentenyloxy]benzyl]: the MIC is at most 0.06 µg/mL in assay [2] and 1 µg/mL (≈ 0.566 µM) in assay [3].

Take `CNC(CC(C)C)C(=O)NC1C(=O)NC(CC(N)=O)C(=O)NC2C(=O)NC3C(=O)NC(C(=O)NC(C(=O)O)c4cc(O)cc(O)c4-c4cc3ccc4O)C(OC3CC(C)(N)C(O)C(C)O3)c3ccc(c(Cl)c3)Oc3cc2cc(c3OC2OC(CO)C(O)C(O)C2OC2CC(C)(NCc3ccc(OCCCc4ccccc4)cc3)C(O)C(C)O2)Oc2ccc(cc2Cl)C1O` (stereo not drawn) [Compound 223, 4-[3-phenylpropyloxy]benzyl]: the MIC is at most 0.06 µg/mL in assay [2] and 1 µg/mL (≈ 0.55 µM) in assay [3].

The compound `CNC(CC(C)C)C(=O)NC1C(=O)NC(CC(N)=O)C(=O)NC2C(=O)NC3C(=O)NC(C(=O)NC(C(=O)O)c4cc(O)cc(O)c4-c4cc3ccc4O)C(OC3CC(C)(N)C(O)C(C)O3)c3ccc(c(Cl)c3)Oc3cc2cc(c3OC2OC(CO)C(O)C(O)C2OC2CC(C)(NCc3ccc(C(F)(F)F)cc3)C(O)C(C)O2)Oc2ccc(cc2Cl)C1O` (stereo not drawn) [Compound 37, 4-trifluoromethylbenzyl] showed an MIC in assay [1] of 1 µg/mL (≈ 0.571 µM).

Turning to `CNC(CC(C)C)C(=O)NC1C(=O)NC(CC(N)=O)C(=O)NC2C(=O)NC3C(=O)NC(C(=O)NC(C(=O)O)c4cc(O)cc(O)c4-c4cc3ccc4O)C(OC3CC(C)(N)C(O)C(C)O3)c3ccc(c(Cl)c3)Oc3cc2cc(c3OC2OC(CO)C(O)C(O)C2OC2CC(C)(NCCCC3CCCC3)C(O)C(C)O2)Oc2ccc(cc2Cl)C1O` (stereo not drawn) [Compound 208, 3-[cyclopentyl]propyl], the MIC in assay [2] is at most 0.06 µg/mL; in assay [3], 2 µg/mL (≈ 1.17 µM).

`CNC(CC(C)C)C(=O)NC1C(=O)NC(CC(N)=O)C(=O)NC2C(=O)NC3C(=O)NC(C(=O)NC(C(=O)O)c4cc(O)cc(O)c4-c4cc3ccc4O)C(OC3CC(C)(N)C(O)C(C)O3)c3ccc(c(Cl)c3)Oc3cc2cc(c3OC2OC(CO)C(O)C(O)C2OC2CC(C)(NCc3cc(-c4ccccc4)ccc3O)C(O)C(C)O2)Oc2ccc(cc2Cl)C1O` (stereo not drawn) [Compound 85, 2-hydroxy-5-phenylbenzyl]: the MIC in assay [2] is at most 0.06 µg/mL; in assay [3], 2 µg/mL (≈ 1.13 µM).

For `CNC(CC(C)C)C(=O)NC1C(=O)NC(CC(N)=O)C(=O)NC2C(=O)NC3C(=O)NC(C(=O)NC(C(=O)O)c4cc(O)cc(O)c4-c4cc3ccc4O)C(OC3CC(C)(N)C(O)C(C)O3)c3ccc(c(Cl)c3)Oc3cc2cc(c3OC2OC(CO)C(O)C(O)C2OC2CC(C)(NCc3ccc(I)s3)C(O)C(C)O2)Oc2ccc(cc2Cl)C1O` (stereo not drawn) [Compound 74, 5-iodo-2-thienylmethyl], the MIC in assay [2] and in assay [3] was at most 0.06 µg/mL each time.

In the case of `CNC(CC(C)C)C(=O)NC1C(=O)NC(CC(N)=O)C(=O)NC2C(=O)NC3C(=O)NC(C(=O)NC(C(=O)O)c4cc(O)cc(O)c4-c4cc3ccc4O)C(OC3CC(C)(N)C(O)C(C)O3)c3ccc(c(Cl)c3)Oc3cc2cc(c3OC2OC(CO)C(O)C(O)C2OC2CC(C)(NCc3ccc(Oc4ccc(OC)cc4)cc3)C(O)C(C)O2)Oc2ccc(cc2Cl)C1O` (stereo not drawn) [Compound 98, 4-[4-methoxyphenoxy]benzyl], the MIC in assay [2] is at most 0.06 µg/mL; in assay [3], 1 µg/mL (≈ 0.554 µM).

Regarding `CNC(CC(C)C)C(=O)NC1C(=O)NC(CC(N)=O)C(=O)NC2C(=O)NC3C(=O)NC(C(=O)NC(C(=O)O)c4cc(O)cc(O)c4-c4cc3ccc4O)C(OC3CC(C)(N)C(O)C(C)O3)c3ccc(c(Cl)c3)Oc3cc2cc(c3OC2OC(CO)C(O)C(O)C2OC2CC(C)(NCc3ccc4c(c3)CCCC4)C(O)C(C)O2)Oc2ccc(cc2Cl)C1O` (stereo not drawn) [Compound 168], the MIC in assay [2] was at most 0.06 µg/mL; in assay [3], 2 µg/mL (≈ 1.15 µM).

In the case of `CNC(CC(C)C)C(=O)NC1C(=O)NC(CC(N)=O)C(=O)NC2C(=O)NC3C(=O)NC(C(=O)NC(C(=O)O)c4cc(O)cc(O)c4-c4cc3ccc4O)C(OC3CC(C)(N)C(O)C(C)O3)c3ccc(c(Cl)c3)Oc3cc2cc(c3OC2OC(CO)C(O)C(O)C2OC2CC(C)(NCc3cncc(-c4ccccc4)c3)C(O)C(C)O2)Oc2ccc(cc2Cl)C1O` (stereo not drawn) [Compound 101, 3-[5-phenyl]pyridinylmethyl], the values for the MIC in assay [2] and in assay [3] were at most 0.06 µg/mL and 8 µg/mL (≈ 4.55 µM), respectively.

The values are drawn from patent publication US5843889A, “Glycopeptide antibiotic derivatives” (Eli Lilly and Company, priority 1997, dated 1998).
